In patent publication US20250127162A1, “METHODS AND COMPOSITIONS FOR CONTROLLING PESTS IN RICE” (Globachem NV, priority 2022, published 2025):

Test system: Chilo suppressalis
Test: Rice field trials, Chilo suppressalis insect damage / white heads (Example 1, Trials 3-4, Thailand)
Assay type: in vivo
Conditions: for percent reduction in insect damage relative to untreated control: UTC given as 0
Procedure: All applications were made with an EC formulation containing 650 g/L of pelargonic acid (e.g., 685 g/L of 95% purity pelargonic acid), an anionic emulsifier and a branched fatty acid ester solvent. […] Trials 1 4 assessing the use of pelargonic acid for controlling Chilo suppressalis in rice were conducted in Spain and Thailand. Application A was made to the crops at the beginning of infestations; for these trials, Stage BBCH 59; Application B was made 14 days after Application A. Trial 3 was conducted in Thailand using a water volume of 500 L/ha of water per application unless otherwise indicated. Insect Damage ([…] %), Insect Damage (Number) and Phytotoxicity were assessed at various treatment evaluation intervals. Population levels were recorded by counting number of rice plants per hill, number of white head (damage from rice stem borer) followed by calculation of % insect damage. Trial 4 was conducted in Thailand using a water volume of 500 L/ha of water per application unless otherwise indicated. Insect Damage ([…] %), Insect Damage (Number) and Phytotoxicity were assessed at various treatment evaluation intervals. Population levels were recorded by counting number of rice plants per hill, number of white head (damage from rice stem borer) followed by calculation of % insect damage.

[1] = Trial 3, 21 DAB, water volume 500 L/ha, rate in treatment name, Prevathon 0.5 L/ha, listed as PA 2600 g/ha
[2] = Trial 4, 0 DAA, water volume 200 L/ha
[3] = Trial 4, 0 DAB, water volume 200 L/ha
[4] = Trial 4, 0 DAB, water volume 500 L/ha, rate in treatment name, Prevathon 0.5 L/ha, listed as PA 585 g/ha
[5] = Trial 4, 0 DAB, water volume 500 L/ha, rate in treatment name, Prevathon 0.5 L/ha, listed as PA 975 g/ha
[6] = Trial 4, 0 DAB, water volume 500 L/ha, rate in treatment name, Prevathon 0.5 L/ha, listed as PA 1300 g/ha
[7] = Trial 4, 0 DAB, water volume 500 L/ha, rate in treatment name, Prevathon 0.5 L/ha, listed as PA 2600 g/ha
[8] = Trial 4, 7 DAA, water volume 200 L/ha
[9] = Trial 4, 7 DAA, water volume 500 L/ha, rate in treatment name, Prevathon 0.5 L/ha, listed as PA 585 g/ha
[10] = Trial 4, 7 DAA, water volume 500 L/ha, rate in treatment name, Prevathon 0.5 L/ha, listed as PA 975 g/ha
[11] = Trial 4, 7 DAA, water volume 500 L/ha, rate in treatment name, Prevathon 0.5 L/ha, listed as PA 1300 g/ha
[12] = Trial 4, 7 DAA, water volume 500 L/ha, rate in treatment name, Prevathon 0.5 L/ha, listed as PA 2600 g/ha
[13] = Trial 4, 7 DAB, water volume 200 L/ha
[14] = Trial 4, 7 DAB, water volume 500 L/ha, rate in treatment name, Prevathon 0.5 L/ha, listed as PA 585 g/ha
[15] = Trial 4, 7 DAB, water volume 500 L/ha, rate in treatment name, Prevathon 0.5 L/ha, listed as PA 975 g/ha
[16] = Trial 4, 7 DAB, water volume 500 L/ha, rate in treatment name, Prevathon 0.5 L/ha, listed as PA 1300 g/ha
[17] = Trial 4, 7 DAB, water volume 500 L/ha, rate in treatment name, Prevathon 0.5 L/ha, listed as PA 2600 g/ha
[18] = Trial 4, 10 DAA, water volume 200 L/ha
[19] = Trial 4, 10 DAA, water volume 500 L/ha, rate in treatment name, Prevathon 0.5 L/ha, listed as PA 585 g/ha
[20] = Trial 4, 10 DAA, water volume 500 L/ha, rate in treatment name, Prevathon 0.5 L/ha, listed as PA 975 g/ha
[21] = Trial 4, 10 DAA, water volume 500 L/ha, rate in treatment name, Prevathon 0.5 L/ha, listed as PA 1300 g/ha
[22] = Trial 4, 10 DAA, water volume 500 L/ha, rate in treatment name, Prevathon 0.5 L/ha, listed as PA 2600 g/ha
[23] = Trial 4, 10 DAB, water volume 200 L/ha
[24] = Trial 4, 10 DAB, water volume 500 L/ha, rate in treatment name, Prevathon 0.5 L/ha, listed as PA 585 g/ha
[25] = Trial 4, 10 DAB, water volume 500 L/ha, rate in treatment name, Prevathon 0.5 L/ha, listed as PA 975 g/ha
[26] = Trial 4, 10 DAB, water volume 500 L/ha, rate in treatment name, Prevathon 0.5 L/ha, listed as PA 1300 g/ha
[27] = Trial 4, 10 DAB, water volume 500 L/ha, rate in treatment name, Prevathon 0.5 L/ha, listed as PA 2600 g/ha
[28] = Trial 4, 14 DAB, water volume 200 L/ha
[29] = Trial 4, 14 DAB, water volume 500 L/ha, rate in treatment name, Prevathon 0.5 L/ha, listed as PA 585 g/ha
[30] = Trial 4, 14 DAB, water volume 500 L/ha, rate in treatment name, Prevathon 0.5 L/ha, listed as PA 975 g/ha
[31] = Trial 4, 14 DAB, water volume 500 L/ha, rate in treatment name, Prevathon 0.5 L/ha, listed as PA 1300 g/ha
[32] = Trial 4, 14 DAB, water volume 500 L/ha, rate in treatment name, Prevathon 0.5 L/ha, listed as PA 2600 g/ha
[33] = Trial 4, 21 DAB, water volume 200 L/ha
[34] = Trial 4, 21 DAB, water volume 500 L/ha, rate in treatment name, Prevathon 0.5 L/ha, listed as PA 585 g/ha
[35] = Trial 4, 21 DAB, water volume 500 L/ha, rate in treatment name, Prevathon 0.5 L/ha, listed as PA 975 g/ha
[36] = Trial 4, 21 DAB, water volume 500 L/ha, rate in treatment name, Prevathon 0.5 L/ha, listed as PA 1300 g/ha
[37] = Trial 4, 21 DAB, water volume 500 L/ha, rate in treatment name, Prevathon 0.5 L/ha, listed as PA 2600 g/ha

CCCCCCCCC(=O)O [PA 650 g/ha, pelargonic acid]
DAMINS % (insect damage, % white heads) [1]: 0.19%
DAMINS (number): mean number of insect damage (white head symptoms) [1]: 0.75
DAMINS (number): mean number of insect damage (white head symptoms) [2]: 5.5
percent reduction in insect damage relative to untreated control [2]: 0%
percent reduction in insect damage relative to untreated control (Trial 4, 0 DAA, water volume 500 L/ha, rate in treatment name, Prevathon 0.5 L/ha): 0%
DAMINS (number): mean number of insect damage (white head symptoms) (Trial 4, 0 DAA, water volume 500 L/ha, rate in treatment name, Prevathon 0.5 L/ha, listed as PA 585 g/ha): 4.57
DAMINS (number): mean number of insect damage (white head symptoms) (Trial 4, 0 DAA, water volume 500 L/ha, rate in treatment name, Prevathon 0.5 L/ha, listed as PA 975 g/ha): 5.19
DAMINS (number): mean number of insect damage (white head symptoms) (Trial 4, 0 DAA, water volume 500 L/ha, rate in treatment name, Prevathon 0.5 L/ha, listed as PA 1300 g/ha): 5.23
DAMINS (number): mean number of insect damage (white head symptoms) (Trial 4, 0 DAA, water volume 500 L/ha, rate in treatment name, Prevathon 0.5 L/ha, listed as PA 2600 g/ha): 5.07
DAMINS (number): mean number of insect damage (white head symptoms) [3]: 1.36
percent reduction in insect damage relative to untreated control [3]: 71.53%
percent reduction in insect damage relative to untreated control [4]: 22.87%
percent reduction in insect damage relative to untreated control [5]: 28.25%
percent reduction in insect damage relative to untreated control [6]: 38.54%
percent reduction in insect damage relative to untreated control [7]: 67.46%
DAMINS (number): mean number of insect damage (white head symptoms) [4]: 3.57
DAMINS (number): mean number of insect damage (white head symptoms) [5]: 3.34
DAMINS (number): mean number of insect damage (white head symptoms) [6]: 2.88
DAMINS (number): mean number of insect damage (white head symptoms) [7]: 1.49
DAMINS (number): mean number of insect damage (white head symptoms) [8]: 2.94
percent reduction in insect damage relative to untreated control [8]: 62.66%
percent reduction in insect damage relative to untreated control [9]: 15.96%
percent reduction in insect damage relative to untreated control [10]: 22.58%
percent reduction in insect damage relative to untreated control [11]: 44.41%
percent reduction in insect damage relative to untreated control [12]: 51.10%
DAMINS (number): mean number of insect damage (white head symptoms) [9]: 6.67
DAMINS (number): mean number of insect damage (white head symptoms) [10]: 6.09
DAMINS (number): mean number of insect damage (white head symptoms) [11]: 4.38
DAMINS (number): mean number of insect damage (white head symptoms) [12]: 3.87
DAMINS (number): mean number of insect damage (white head symptoms) [13]: 0.76
percent reduction in insect damage relative to untreated control [13]: 80.70%
percent reduction in insect damage relative to untreated control [14]: 27.16%
percent reduction in insect damage relative to untreated control [15]: 36.66%
percent reduction in insect damage relative to untreated control [16]: 49.64%
percent reduction in insect damage relative to untreated control [17]: 66.66%
DAMINS (number): mean number of insect damage (white head symptoms) [14]: 2.86
DAMINS (number): mean number of insect damage (white head symptoms) [15]: 2.52
DAMINS (number): mean number of insect damage (white head symptoms) [16]: 1.93
DAMINS (number): mean number of insect damage (white head symptoms) [17]: 1.32
DAMINS (number): mean number of insect damage (white head symptoms) [18]: 1.76
percent reduction in insect damage relative to untreated control [18]: 80.59%
percent reduction in insect damage relative to untreated control [19]: 40.99%
percent reduction in insect damage relative to untreated control [20]: 44.26%
percent reduction in insect damage relative to untreated control [21]: 56.19%
percent reduction in insect damage relative to untreated control [22]: 72.62%
DAMINS (number): mean number of insect damage (white head symptoms) [19]: 5.33
DAMINS (number): mean number of insect damage (white head symptoms) [20]: 4.99
DAMINS (number): mean number of insect damage (white head symptoms) [21]: 3.94
DAMINS (number): mean number of insect damage (white head symptoms) [22]: 2.48
DAMINS (number): mean number of insect damage (white head symptoms) [23]: 1.06
percent reduction in insect damage relative to untreated control [23]: 77.49%
percent reduction in insect damage relative to untreated control [24]: 22.53%
percent reduction in insect damage relative to untreated control [25]: 51.13%
percent reduction in insect damage relative to untreated control [26]: 61.44%
percent reduction in insect damage relative to untreated control [27]: 74.82%
DAMINS (number): mean number of insect damage (white head symptoms) [24]: 3.71
DAMINS (number): mean number of insect damage (white head symptoms) [25]: 2.35
DAMINS (number): mean number of insect damage (white head symptoms) [26]: 1.86
DAMINS (number): mean number of insect damage (white head symptoms) [27]: 1.19
DAMINS (number): mean number of insect damage (white head symptoms) [28]: 0.9
percent reduction in insect damage relative to untreated control [28]: 80.46%
percent reduction in insect damage relative to untreated control [29]: 19.69%
percent reduction in insect damage relative to untreated control [30]: 40.42%
percent reduction in insect damage relative to untreated control [31]: 46.02%
percent reduction in insect damage relative to untreated control [32]: 76.77%
DAMINS (number): mean number of insect damage (white head symptoms) [29]: 3.78
DAMINS (number): mean number of insect damage (white head symptoms) [30]: 2.74
DAMINS (number): mean number of insect damage (white head symptoms) [31]: 2.54
DAMINS (number): mean number of insect damage (white head symptoms) [32]: 1.1
DAMINS (number): mean number of insect damage (white head symptoms) [33]: 1.24
percent reduction in insect damage relative to untreated control [33]: 74.20%
percent reduction in insect damage relative to untreated control [34]: 29.88%
percent reduction in insect damage relative to untreated control [35]: 37.44%
percent reduction in insect damage relative to untreated control [36]: 52.85%
percent reduction in insect damage relative to untreated control [37]: 71.12%
DAMINS (number): mean number of insect damage (white head symptoms) [34]: 3.3
DAMINS (number): mean number of insect damage (white head symptoms) [35]: 2.96
DAMINS (number): mean number of insect damage (white head symptoms) [36]: 2.26
DAMINS (number): mean number of insect damage (white head symptoms) [37]: 1.38
